For one assay, the target named is T1, μ-opioid receptor (Homo sapiens, UniProt P35372).
T1 construct: host or cells: HEK-293; b235 lists HEK-293, CHO or U-2 OS)
Description: μ-opioid receptor [35S]GTPγS functional assay. The note with it: for Emax: maximal effect relative to the effect elicited by DAMGO, HEK-293 cells. Type of assay: biochemical. As to the method:
[^35S]GTPγS functional assays were conducted using freshly thawed μ-receptor membranes prepared in-house from a cell line expressing recombinant t opioid receptor in a HEK-293, CHO or U-2 OS cell background, or purchased from a commercial source (Perkin Elmer, Shelton, Conn.; or DiscovRx, Fremont, Calif.). Assay reactions were prepared by sequentially adding the following reagents to binding buffer (100 mM NaCl, 10 mM MgCl2, 20 mM HEPES, pH 7.4) on ice (final concentrations indicated): membrane protein (0.026 mg/mL), saponin ([…]), GDP ([…]) and [^35S]GTPγS (0.20 nM; Perkin Elmer, Shelton, Conn.). The prepared membrane solution (190 μl/well) was transferred to 96-shallow well polypropylene plates containing 10 al of 20× concentrated stock solutions of the agonist [D-Ala^2, N-methyl-Phe^4 Gly-ol^5]-enkephalin (DAMGO) prepared in dimethyl sulfoxide (DMSO). Plates were incubated for 30 min at about 25° C. with shaking. Reactions were terminated by rapid filtration onto 96-well Unifilter GF/B filter plates (Perkin Elmer, Shelton, Conn.) using a 96-well tissue harvester (Perkin Elmer, Shelton, Conn.) followed by three filtration washes with 200 μl of ice-cold wash buffer (10 mM NaH2PO4, 10 mM Na2HPO4, pH 7.4). Filter plates were subsequently dried at 50° C. for 2-3 hours. BetaScint scintillation cocktail (Perkin Elmer, Shelton, Conn.) was added (50 μl/well) and plates were counted using a Packard Top-Count for 1 min/well. Data were analyzed using the sigmoidal dose-response curve fitting functions in GraphPad PRISM v. 3.0, or an in-house function for non-linear, sigmoidal dose-response curve-fitting.
μGTP EC50 is the concentration of a compound providing 50% of the maximal response for the compound at a μ-opioid receptor.
μ GTP Emax (%) is the maximal effect elicited by a compound relative to the effect elicited by DAMGO, a standard agonist. Generally, the μ GTP Emax (%) value measures the efficacy of a compound to treat or prevent pain or other Conditions.
(§1) In TABLE 2, activity response of certain Compounds of the Invention to the μ- and κ-opioid receptors was determined as described above for functional assays using HEK-293 cells.
For orientation: GTPγS resists hydrolysis and so accumulates on activated G proteins.

Assay [1] has as its target T2, κ-opioid receptor (Homo sapiens, UniProt P41145). Description: κ-opioid receptor [35S]GTPγS functional assay. Format: biochemical. Further details: expressed in transfected cells; host or cells: HEK-293 (in-house membranes). To be noted: for Emax: maximal effect relative to the effect elicited by U69,593, HEK-293 cells. As to the method:
Functional [^35S]GTPγS binding assays were conducted as follows. K opioid receptor membrane solution was prepared by sequentially adding final concentrations of 0.026 μg/μl κ membrane protein (in-house), 10 μg/mL saponin, 3 μM GDP and 0.20 nM [^35S]GTPγS to binding buffer (100 mM NaCl, 10 mM MgCl2, 20 mM HEPES, pH 7.4) on ice. The prepared membrane solution (190 μl/well) was transferred to 96-shallow well polypropylene plates containing 10 μl of 20× concentrated stock solutions of agonist prepared in DMSO. Plates were incubated for 30 min at a temperature of about 25° C. with shaking. Reactions were terminated by rapid filtration onto 96-well Unifilter GF/B filter plates (Perkin Elmer, Shelton, Conn.) using a 96-well tissue harvester (Packard) and followed by three filtration washes with 200 μl ice-cold binding buffer (10 mM NaH2PO4, 10 mM Na2HPO4, pH 7.4). Filter plates were subsequently dried at 50° C. for 2-3 hours. Fifty μl/well scintillation cocktail (Perkin Elmer, Shelton, Conn.) was added and plates were counted in a Packard Top-Count for 1 min/well.
κ GTP EC50 is the concentration of a compound providing 50% of the maximal response for the compound at a κ receptor.
κ GTP Emax (%) is the maximal effect elicited by a compound relative to the effect elicited by U69,593.
as §1

For assay [2], the target named is T2, κ-opioid receptor. The experiment in a line: κ-opioid receptor radioligand dose displacement binding assay ([3H]-U69,593). Also noted: expressed in transfected cells; host or cells: HEK-293 (in-house membrane prep). As to the method: Membranes from HEK-293 cells, CHO or U-2 OS cells expressing the recombinant human kappa opioid receptor (K) were prepared by lysing cells in ice cold hypotonic buffer (2.5 mM MgCl2, 50 mM HEPES, pH 7.4) (10 mL/10 cm dish) followed by homogenization with a tissue grinder/Teflon pestle. Membranes were collected by centrifugation at 30,000×g for 15 min at 4° C. and pellets were resuspended in hypotonic buffer to a final concentration of 1-3 mg/mL. Protein concentrations were determined using the BioRad protein assay reagent with bovine serum albumen as standard. Aliquots of κ receptor membranes were stored at −80° C.
Radioligand dose displacement assays used 0.4 nM [^3H]-U69,593 (GE Healthcare, Piscataway, N.J.; 40 Ci/mmole) with 15 μg membrane protein (recombinant K opioid receptor expressed in HEK 293 cells; in-house prep) in a final volume of 200 μl binding buffer (5% DMSO, 50 mM Trizma base, pH 7.4). Non-specific binding was determined in the presence of 10 μM unlabeled naloxone or U69,593. All reactions were performed in 96-well polypropylene plates for 1 hour at a temperature of about 25° C. Binding reactions were terminated by rapid filtration onto 96-well Unifilter GF/C filter plates (Perkin Elmer, Shelton, Conn.) presoaked in 0.5% polyethylenimine (Sigma). Harvesting was performed using a 96-well tissue harvester (Perkin Elmer, Shelton, Conn.) followed by five filtration washes with 200 μl ice-cold binding buffer. Filter plates were subsequently dried at 50° C. for 1-2 hours. Fifty μl/well scintillation cocktail (Perkin Elmer, Shelton, Conn.) was added and plates were counted in a Packard Top-Count for 1 min/well.
In TABLE 1, binding affinity of certain Compounds of the Invention to the κ-opioid receptors was determined as described above.

In general, EC50 refers to the concentration needed to bring the measured effect to its halfway point. Usually Emax stands for the maximal effect, on the per cent scale that the assay sets. The Ki is the dissociation constant of the complex between target and ligand, obtained from inhibition or displacement. A low value points to a stronger hold on the target.

T2 sequence (P41145 whole entry): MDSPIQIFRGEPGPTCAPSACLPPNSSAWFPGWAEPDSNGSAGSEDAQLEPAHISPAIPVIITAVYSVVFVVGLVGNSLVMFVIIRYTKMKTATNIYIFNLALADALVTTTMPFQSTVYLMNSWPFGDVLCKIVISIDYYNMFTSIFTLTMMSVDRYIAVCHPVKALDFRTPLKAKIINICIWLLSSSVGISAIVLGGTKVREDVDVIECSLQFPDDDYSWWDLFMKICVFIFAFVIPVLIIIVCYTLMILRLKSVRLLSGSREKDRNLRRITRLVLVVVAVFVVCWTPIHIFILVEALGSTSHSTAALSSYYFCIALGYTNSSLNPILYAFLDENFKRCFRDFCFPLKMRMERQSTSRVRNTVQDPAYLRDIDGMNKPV
T1 sequence (P35372 whole entry, species assumed): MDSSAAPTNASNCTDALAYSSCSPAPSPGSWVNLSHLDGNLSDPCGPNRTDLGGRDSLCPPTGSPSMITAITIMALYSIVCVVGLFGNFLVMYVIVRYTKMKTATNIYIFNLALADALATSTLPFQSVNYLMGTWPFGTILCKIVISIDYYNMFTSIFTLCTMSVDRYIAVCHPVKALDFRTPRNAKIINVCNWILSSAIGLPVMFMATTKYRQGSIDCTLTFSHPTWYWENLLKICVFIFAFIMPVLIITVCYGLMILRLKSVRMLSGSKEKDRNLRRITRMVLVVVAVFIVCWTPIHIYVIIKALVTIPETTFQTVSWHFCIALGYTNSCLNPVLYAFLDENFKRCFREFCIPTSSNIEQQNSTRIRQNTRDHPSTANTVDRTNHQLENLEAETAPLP

At μ-opioid receptor, `COC(=O)c1cc2c([nH]c1=O)C[C@]13CCN(C(=O)OC(C)(C)C)[C@H](Cc4ccc(OC)cc41)[C@]3(O)C2` [Compound 3, 15-(tert-Butyl) 9-methyl (6R,6aS,12aR)-6a-hydroxy-2-methoxy-10-oxo-6,6a,7,10,11,12-hexahydro-5H-6,12a-(epiminoethano)naphtho[2,1-g]quinoline-9,15-dicarboxylate] displayed an EC50 above 20000 nM and an Emax of 0%.
At μ-opioid receptor, `COC(=O)c1cc2c([nH]c1=O)C[C@]13CCN[C@H](Cc4ccc(OC)cc41)[C@]3(O)C2` [Compound 4, Methyl (6R,6aS,12aR)-6a-hydroxy-2-methoxy-10-oxo-6,6a,7,10,11,12-hexahydro-5H-6,12a-(epiminoethano)naphtho[2,1-g]quinoline-9-carboxylate] showed an EC50 above 20000 nM and an Emax of 20 ± 2.08%.
At μ-opioid receptor, `NC(=O)c1cc2c([nH]c1=O)C[C@]13CCN[C@H](Cc4ccc(O)cc41)[C@]3(O)C2` [Compound 6] came in with an EC50 of 2900 ± 868 nM and an Emax of 23 ± 1%.
On μ-opioid receptor, `COc1ccc2c(c1)[C@]13CCN(C)[C@H](C2)[C@@H]1Cc1cc(C(=O)O)c(=O)[nH]c1C3` [Compound 8, (6R,6aR,12aS)-2-methoxy-15-methyl-10-oxo-6,6a,7,10,11,12-hexahydro-5H-6,12a-(epiminoethano)naphtho[2,1-g]quinoline-9-carboxylic acid] showed an EC50 of 13300 ± 1800 nM and an Emax of 40.7 ± 5.04%.
On μ-opioid receptor, `CN1CC[C@]23Cc4[nH]c(=O)c(C(=O)NCc5ccccc5)cc4C[C@H]2[C@H]1Cc1ccc(O)cc13` [Compound 11, (6R,6aR,12aS)-N-benzyl-2-hydroxy-15-methyl-10-oxo-6,6a,7,10,11,12-hexahydro-5H-6,12a-(epiminoethano)naphtho[2,1-g]quinoline-9-carboxamide] gave an EC50 of 332 ± 61.7 nM and an Emax of 32.3 ± 0.88%.
For `CN1CC[C@]23Cc4[nH]c(=O)c(C(=O)N5CCCC5)cc4C[C@H]2[C@H]1Cc1ccc(O)cc13` [Compound 12, (6R,6aR,12aS)-2-hydroxy-15-methyl-9-(pyrrolidine-1-carbonyl)-6,6a,7,12-tetrahydro-5H-6,12a-(epiminoethano)naphtho[2,1-g]quinolin-10(11H)-one], the values for the EC50 on μ-opioid receptor and at κ-opioid receptor [1] were 145 ± 27.9 nM and 24.2 ± 11.9 nM, respectively. The values for the Emax on μ-opioid receptor and at κ-opioid receptor [1] were 35.3 ± 1.67% and 9.5 ± 0.5%, respectively. On κ-opioid receptor [2], this compound came in with a Ki of 14.4 ± 2.81 nM.
On μ-opioid receptor, `CN1CC[C@]23Cc4[nH]c(=O)c(C(=O)N[C@@H]5c6ccccc6C[C@@H]5O)cc4C[C@H]2[C@H]1Cc1ccc(O)cc13` [Compound 13, (6R,6aR,12aS)-2-hydroxy-N-((1R,2S)-2-hydroxy-2,3-dihydro-1H-inden-1-yl)-15-methyl-10-oxo-6,6a,7,10,11,12-hexahydro-5H-6,12a-(epiminoethan)naphth[2-g]quinolinone-9-carboxamide] gave an EC50 of 484 ± 113 nM and a maximum response (Emax) of 34 ± 3.21%.
On the same counts, the results for `CN1CC[C@]23Cc4[nH]c(=O)c(C(=O)N[C@H]5c6ccccc6C[C@H]5O)cc4C[C@H]2[C@H]1Cc1ccc(O)cc13` [Compound 14, (6R,6aR,12aS)-2-hydroxy-N-((1S,2R)-2-hydroxy-2,3-dihydro-1H-inden-yl)-15-methyl-10-oxo-6,6a,7,10,11,12-hexahydro-5H-6,12a-(epiminoethano)naphtho[2,1-g]quinoline-9-carboxamide] are 432 ± 135 nM and 34 ± 2.31%.
On to `CN(C(=O)c1cc2c([nH]c1=O)C[C@]13CCN(C)[C@H](Cc4ccc(O)cc41)[C@@H]3C2)C1CCCCC1` [Compound 15, (6R,6aR,12aS)—N-cyclohexyl-2-hydroxy-N,15-dimethyl-10-oxo-6,6a,7,10,11,12-hexahydro-5H-6,12a-(epiminoethano)naphtho[2,1-g]quinoline-9-carboxamide], for which, at μ-opioid receptor, the EC50 was found to be 289 ± 34.8 nM and the Emax was 29.7 ± 3.28%.
Consider `CN1CC[C@]23Cc4[nH]c(=O)c(C(=O)N5Cc6ccccc6C5)cc4C[C@H]2[C@H]1Cc1ccc(O)cc13` [Compound 16, (6R,6aR,12aS)-2-hydroxy-9-(isoindoline-2-carbonyl)-15-methyl-6,6a,7,12-tetrahydro-5H-6,12a-(epiminoethano)naphtho[2,1-g]quinolin-10(11H)-one], for which, on μ-opioid receptor, the EC50 worked out at 40.2 ± 11.5 nM and the Emax came out at 47 ± 2.65%. At κ-opioid receptor [1], the EC50 is above 20000 nM and the Emax turned out to be 0%. Moreover, the Ki on κ-opioid receptor [2] amounted to 1.41 ± 0.52 nM.
As to `CN1CC[C@]23Cc4[nH]c(=O)c(C(=O)N5CCS(=O)(=O)CC5)cc4C[C@H]2[C@H]1Cc1ccc(O)cc13` [Compound 18, (6R,6aR,12aS)-9-(1,1-dioxidothiomorpholine-4-carbonyl)-2-hydroxy-15-methyl-6,6a,7,12-tetrahydro-5H-6,12a-(epiminoethano)naphtho[2,1-g]quinolin-10(11H)-one], at μ-opioid receptor, the concentration giving a half-maximal response (EC50) was found to be 462 ± 88.4 nM and the Emax turned out to be 33.2 ± 3.3%.
The corresponding values for `CCn1c2c(cc(C(=O)N3Cc4ccccc4C3)c1=O)C[C@@]1(O)[C@H]3Cc4ccc(O)cc4[C@@]1(CCN3C)C2` [Compound 19, (6R,6aS,12aR)-11-ethyl-2,6a-dihydroxy-9-(isoindoline-2-carbonyl)-15-methyl-6,6a,7,12-tetrahydro-5H-6,12a-(epiminoethano)naphtho[2,1-g]quinolin-10(11H)-one] are 288 ± 49.6 nM and 30.8 ± 2.31%.
The corresponding values for `COc1ccc2c(c1)[C@]13CCN(C(=O)OC(C)(C)C)[C@H](C2)[C@]1(O)Cc1cc(C(=O)O)c(=O)[nH]c1C3` [Compound 20, (6R,6aS,12aR)-15-(tert-butoxycarbonyl)-6a-hydroxy-2-methoxy-10-oxo-6,6a,7,10,11,12-hexahydro-5H-6,12a-(epiminoethano)naphtho[2,1-g]quinoline-9-carboxylic acid] are above 20000 nM and 3%.

For the origin of these results see patent US10131666B2, “Heterocyclic morphinan derivatives and use thereof” (Purdue Pharma L.P., priority 2014, dated 2018).
